The values below come from US20180140578A1, “METHODS AND COMPOSITIONS FOR THE DIAGNOSIS AND SELECTIVE TREATMENT OF CANCER” (Board of Regents of the University of Texas System, priority 2016, published 2018).

For assay [1], the system named is DCAF15−/− H1155 cells. Nature of the assay: Cell viability assay, DCAF15−/− cells. Particulars: at concentrations as high as 50 μM. It is filed as cell-based, human. The protocol: 12-point dose responses were performed on 96-well assay plates with cell plating (1500-4000 cell per well) on day 1, compound addition on day 2, and survival measurement on day 5. Compounds were diluted in DMSO before adding to the cells. Final DMSO concentration was 0.5%. Cell survival assay was performed using CellTiter-Glo Luminescent Cell Viability Assay kit (Promega) that measures cellular ATP content. Luminescence was recorded by EnVison multimode plate reader (Perkin Elmer). IC50 was determined with GraphPad Prism using baseline correction (by normalizing to DMSO control), the asymmetric (five parameter) equation and least squares fit.
(§1) Two independent guide RNAs targeting DDB1, DDA1, DCAF15 were cloned into PX459. 0.2 million H1155 RBM39-AcGFP cells were transfected with PX459 sgRNA constructs and selected with 2 μg/ml puromycin to enrich for transfected cells. […] Cells were then trypsinized and the expression of RBM39-AGFP was quantified with flow cytometry. H1155 cells transfected with DCAF15 guide RNA were sparsely plated on 10 cm^2 plates and clones were isolated. Genomic DNA sequence flanking the cut site were amplified and sequenced to identify DCAF15−/− clones.

Assay [2] has as its system pre-mRNA splicing in HCT-116 cells. Nature of the assay: RNA-seq analysis of splicing changes, parental HCT-116. The class given is cell-based, human. The settings on record: 2 μM indisulam. The source says: RNAs were extracted using Quick-RNA MiniPrep kit (Zymo Research). After cleaning up genomic DNA contaminant with Turbo DNase (Life Technologies) and rRNA depletion, strand-specific cDNA libraries were generated using the TruSeq Stranded mRNA Sample Prep Kit (IIlumina) and were subjected to high throughput sequencing using
HiSeq2500 platform (Illumina) with 100-bp single-end reads. NGS QC Toolkit (v2.3.1) (49) was used to check the sequencing quality, and high-quality reads were aligned by TopHat (v2.0.8) (50) to human reference genome (hg19) along with the gene annotation data downloaded from Illumina's iGenomes (support.illumina.com/sequencing/sequencing_software/igenome.ilmn). The insert-size metrics required in TopHat execution and the correctness of strand specificity were estimated by mapping reads to human transcript sequences using Bowtie (v2.1.0) (51) and Picard-tools (v1.99) (picard.sourceforge.net). The htseq-count script distributed with the HTSeq Python package (0.6.1) (pypi.python.org/pypi/HTSeq) was employed for counting reads in genes considering the coding strands. Source data for RNA sequencing data is available under NCBI SRA accession SRP096666.
For the stringent detection of differential skipped exons and retained introns, a custom program called SpliceFisher was developed and it is downloadable at github.com/jiwoongbio/SpliceFisher. Exonic and intronic regions were defined as annotated in the reference genome. To estimate differential exon skipping events, the numbers of exon-junction reads (panels a and b in FIG. 16) and exon-skipping reads (panel c in FIG. 16) observed in a sample were compared to the numbers observed in another sample. […] Additionally, the number of reads mapped to the target region (panel d in FIG. 16) and other exonic regions of the gene (panel e in FIG. 16) were also compared between samples. The read counts were evaluated by multiple Fisher's exact tests in three two-by-two tables using R and then the p-values were adjusted using FDR by each comparison type. Differential alternative splicing events were identified with all three adjusted p-values less than 0.01. The differential alternative splice sites and mutually exclusive exons were additionally detected by a similar method using the numbers of splicing reads supporting each junction.

Assay [3] deals with 758 cancer cell lines. The settings on record: CTD2 AUC values; cited from earlier work.
Assay [4] relates to TRIM27 mRNA and RBM3 mRNA. The assay can be described thus: PCR validation of splicing changes. It is filed as cell-based, human. The protocol:
RNAs isolated from indisulam or siRNA treated cells were first treated with Turbo DNase (Life Technologies) to remove contaminating genomic DNA. After RNA cleanup with Quick-RNA MiniPrep kit (Zymo Research), 500 ng of total RNAs was converted into cDNAs with Multiscribe reverse transcriptase (Life Technologies). Exon skipping in TRIM27 was visualized by PCR amplification with 5′-[…]-3′ (SEQ ID NO: 3) and 5′-[…]-3′ (SEQ ID NO: 4) from cDNAs. […] Relative RNA levels were calculated based on 2^−ct method using Cyclophilin mRNA for normalization. The following primers were used for quantification of mRNA levels: […]

Assay [5] deals with T1, RBM39-AcGFP (Homo sapiens, UniProt Q14498+Q66K64).
T1 construct: Homology directed repair facilitates tagging of endogenous RBM39 by AID, 3xFLAG, AcGFP, or Nanoluciferase; endogenous in cells; host or cells: H1155 RBM39-AcGFP knock-in cells
Nature of the assay: CRISPR inactivation of DDB1, DDA1, DCAF15; RBM39-AcGFP by flow cytometry. The class given is cell-based. Particulars: H1155 RBM39-AcGFP cells. The protocol: as §1
For orientation: Flow cytometry measures light scatter and fluorescence of single cells or particles in a stream.

Assay [6] deals with T2, RBM39-Nluc (Homo sapiens, UniProt Q14498+Q66K64).
T2 construct: Homology directed repair facilitates tagging of endogenous RBM39 by AID, 3xFLAG, AcGFP, or Nanoluciferase; endogenous in cells; host or cells: H1155 RBM39-Nluc knock-in cells
The assay can be described thus: RBM39-Nluc degradation by Nano-Glo luciferase assay. The class given is cell-based. The settings on record: H1155 RBM39-Nluc cells; read-out: decrease in RBM39-Nluc activity (IC50). The protocol:
NanoLuc was knocked-in to the 3-prime end of the RBM39 gene using the procedure described above yielding H1155 RBM39-Nluc cells. […] Luminescence was recorded by EnVision multimode plate reader (Perkin Elmer). IC50 was determined with GraphPad Prism using baseline correction (by normalizing to DMSO control), the asymmetric (five parameter) equation and least squares fit.

Take `NS(=O)(=O)c1ccc(S(=O)(=O)Nc2cccc3c(Cl)c[nH]c23)cc1` [Indisulam, indisulam]: in assay [1], the “sensitivity of DCAF15−/− cells” value is listed as “insensitive”. In assay [2] (6 hours), the exon skipping events was 327 and the introns retained was found to be 107. For the same molecule, in assay [2] (12 hours), the exon skipping events was 837 and the introns retained is reported as 303. Moreover, the “sensitivity to indisulam amongst hematopoietic and lymphoid (HL) lineage cell lines” value in assay [3] is recorded as “significantly enriched”. The “splicing of TRIM27 mRNA (RT-PCR)” value in assay [4] is recorded as “dose-dependent exon skipping”. Besides, the “splicing of RBM3 mRNA (RT-PCR)” value in assay [4] (indisulam dose-dependent) is “intron retention”. Also, the “RBM39-AcGFP after indisulam treatment” value in assay [5] is “degraded”. Also, the DC50 in assay [6] came out at 360 nM.
